Reference: US7902197B2, “Pyrrolopyrazine kinase inhibitors” (Roche Palo Alto LLC, priority 2008, dated 2011)

Columns and labels:
[1] = target: JAK3: Recombinant human kinase domain (Homo sapiens, UniProt P52333); test: Determination of IC50 of Janus Kinase (JAK) inhibition, radioactive end-point 33P-ATP assay, JAK3; format: biochemical; details: 0.5 nM or 0.2 nM JAK3, ATP 1.5 uM, peptide 50 uM, 20 minutes; read-out: IC50 h-jak3-sf21-c
Source text: (§1) Determination of IC50 of Janus Kinase (JAK) Inhibition: […]

[2] = target: JAK2: Recombinant human kinase domain (Homo sapiens, UniProt O60674); test: Determination of IC50 of Janus Kinase (JAK) inhibition, radioactive end-point 33P-ATP assay, JAK2; format: biochemical; details: 1 nM JAK2, ATP 1.5 uM, peptide 50 uM, 20 minutes; read-out: IC50 h-jak2-sf21-c
Source text: as §1

JAK3: Recombinant human kinase domain, sequence (P52333 822-1111 limits assumed): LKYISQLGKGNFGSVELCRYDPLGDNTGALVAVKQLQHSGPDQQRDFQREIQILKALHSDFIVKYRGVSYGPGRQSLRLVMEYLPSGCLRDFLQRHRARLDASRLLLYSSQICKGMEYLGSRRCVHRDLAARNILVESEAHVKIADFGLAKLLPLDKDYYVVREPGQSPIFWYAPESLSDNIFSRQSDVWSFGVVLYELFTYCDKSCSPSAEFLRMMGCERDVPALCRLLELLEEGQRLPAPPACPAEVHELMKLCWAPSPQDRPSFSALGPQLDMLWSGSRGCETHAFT
JAK2: Recombinant human kinase domain, sequence (O60674 849-1124 limits assumed): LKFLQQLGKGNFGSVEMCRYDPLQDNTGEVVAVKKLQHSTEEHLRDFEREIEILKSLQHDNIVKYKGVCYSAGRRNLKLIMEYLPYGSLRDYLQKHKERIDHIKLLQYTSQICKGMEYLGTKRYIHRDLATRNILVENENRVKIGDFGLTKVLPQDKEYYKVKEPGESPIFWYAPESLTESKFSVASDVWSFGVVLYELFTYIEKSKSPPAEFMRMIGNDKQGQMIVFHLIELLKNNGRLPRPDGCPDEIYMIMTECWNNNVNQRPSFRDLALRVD

| SMILES | melting point | IC50 [1] | IC50 [2] |
| --- | --- | --- | --- |
| CN1CCN(c2cccc(Nc3cnc4[nH]cc(C(=O)C(C)(C)C)c4n3)c2)CC1 [Compound I-35, 2,2-Dimethyl-1-{2-[3-(4-methyl-piperazin-1-yl)-phenylamino]-5H-pyrrolo[2,3-b]pyrazin-7-yl}-propan-1-one] | – | 498 nM | – |
| CN1CCN(c2ccc(Nc3cnc4[nH]cc(C(=O)C(C)(C)C)c4n3)cc2)CC1 [Compound I-34, 2,2-Dimethyl-1-{2-[4-(4-methyl-piperazin-1-yl)-phenylamino]-5H-pyrrolo[2,3-b]pyrazin-7-yl}-propan-1-one] | – | 471 nM | – |
| CC(C)(C)C(=O)c1c[nH]c2ncc(C(=O)NC3CCCC3)nc12 [Compound I-15, 7-(2,2-Dimethyl-propionyl)-5H-pyrrolo[2,3-b]pyrazine-2-carboxylic acid cyclopentylamide] | 237.9 to 241.5 °C | – | – |

More lines, now with the values ahead:

| melting point | IC50 [1] | IC50 [2] | SMILES |
| --- | --- | --- | --- |
| 188 to 198 °C | – | – | CC(C)(C)C(=O)c1cnc2[nH]cc(C(=O)C(C)(C)C)c2n1 [Compound I-2, 1-[7-(2,2-Dimethyl-propionyl)-5H-pyrrolo[2,3-b]pyrazin-2-yl]-2,2-dimethyl-propan-1-one] |
| 277 to 278 °C | 59.2 nM | 129 nM | CC(C)NC(=O)c1c[nH]c2ncc(N(C)C3CCCC3)nc12 [Compound I-1, 2-(Cyclopentyl-methyl-amino)-5H-pyrrolo[2,3-b]pyrazine-7-carboxylic acid isopropylamide] |
